For experiment [1], the system named is HS-PSS. The experiment can be described thus: relative IC50 (inflection point of fitted dose-response curve, CellTox-Green cytotoxicity, 72 h; top asymptote may be below 50%); higher = less potent. The essentials:
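For 72 h at 37 °C, MPNST cell lines and primary human Schwann cells were exposed in 384-well plates to five 10-fold compound dilutions. CellTox-Green, added before seeding at a final 1:1000 dilution, gave fluorescence from DNA released by disrupted cells. Signals were scaled to vehicle and positive-control wells, cultures failing plate quality control were left out, and four-parameter logistic fits were applied. Relative IC50 and drug sensitivity score were derived from the fits, with IC50 censored at the top concentration.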

The subject of experiment [2] is HS-PSS. The experiment can be described thus: relative IC50 (inflection point of fitted dose-response curve, CellTiter-Glo viability, 72 h; top asymptote may be below 50% inhibition); higher = less potent. The essentials:
(§1)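 After seeding 750–1000 cells per well of MPNST cell lines or primary human Schwann cells into 384-well plates preprinted with each compound at five concentrations in 10-fold steps, plates were kept 72 h at 37 °C, 5% CO2. Viability was read as CellTiter-Glo ATP luminescence relative to vehicle and positive-control wells, with duplicates averaged where present. The data were fitted with four-parameter logistic models. Drug sensitivity score and relative IC50, censored at the top concentration, derive from the fits, and percent inhibition refers to the top concentration.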
In general terms: In ATP-based viability assays light output follows the ATP content of the culture.

The test system of a further experiment is HS-Sch-2. The experiment is described as above. The essentials: as §1
The test system of the next experiment is YST-1. Described as above. The essentials:
as §1

Molecules are shown by their SMILES.

The source of these data is the supplement of paper PMC5579334.

Usually relative IC50 stands for the concentration at the midpoint between the plateaus of the fitted inhibition curve.

With `CCNC(=O)C[C@@H]1N=C(c2ccc(Cl)cc2)c2cc(OC)ccc2-n2c(C)nnc21`, the “relative IC50” value was above 10000 nM in the experiment with HS-PSS [1], 709 nM in the experiment with HS-PSS [2], 624 nM with HS-Sch-2 and 501 nM in the experiment with YST-1.

Turning to `CCn1c(-c2nonc2N)nc2c(C#CC(C)(C)O)ncc(OC[C@H]3CCCNC3)c21`, the “relative IC50” value was above 10000 nM in the experiment with HS-PSS [1], above 10000 nM in the experiment with HS-PSS [2], 1620 nM in the experiment on HS-Sch-2 and above 10000 nM with YST-1.

Consider `CCn1cc(-c2ccnc3[nH]c(-c4cccc(CN(C)C)c4)cc23)c(-c2ccc(NC(=O)N(C)C)cc2)n1`, for which the “relative IC50” value in the experiment with HS-PSS [1] is above 1000 nM; with HS-PSS [2] it was 142 nM; in the experiment with HS-Sch-2, 157 nM; in the experiment on YST-1, 3.97 nM.

For the compound `CNC(=O)c1ccccc1Nc1nc(Nc2ccc3c(c2OC)CCC[C@H](N2CCN(CCO)CC2)C3)ncc1Cl`, the “relative IC50” value in the experiment with HS-PSS [1] is 1090 nM; in the experiment on HS-PSS [2], 155 nM; with HS-Sch-2 it was 979 nM; in the experiment on YST-1 it was 633 nM.

Turning to `CS(=O)(=O)N1CCc2c(-c3cnc(N)nc3)nc(N3CCOCC3)nc21`, the “relative IC50” value in the experiment with HS-PSS [1] is above 10000 nM; in the experiment with HS-PSS [2] it was 687 nM; in the experiment on HS-Sch-2, 1050 nM; with YST-1, 256 nM.

Consider `C[C@@H](Oc1cc(-n2cnc3ccc(CN4CCN(C)CC4)cc32)sc1C(N)=O)c1ccccc1C(F)(F)F`, for which the “relative IC50” value in the experiment with HS-PSS [1] turned out to be 3200 nM; in the experiment on HS-PSS [2], 501 nM; in the experiment with HS-Sch-2 it was 11.9 nM; in the experiment on YST-1, 20.9 nM.

On to `C[C@@H]1CN(CC(=O)Nc2ccc3c(c2)Cc2cccc(-c4cc(=O)cc(N5CCOCC5)o4)c2S3)C[C@H](C)O1`, for which the “relative IC50” value in the experiment on HS-PSS [1] is above 25000 nM; in the experiment with HS-PSS [2], 10100 nM; in the experiment with HS-Sch-2, 4240 nM; in the experiment on YST-1 it was 9260 nM.

Take `Cc1c(NC(=O)OC[C@@H]2COCCN2)cn2ncnc(Nc3ccc4c(cnn4Cc4cccc(F)c4)c3)c12`: the “relative IC50” value was 2150 nM in the experiment with HS-PSS [2], 1990 nM in the experiment with HS-Sch-2 and 1000 nM with YST-1.

With `Cc1nn(C)c(COc2ccc(N3CCN(S(=O)(=O)N(C)C)CC3)cc2)c1-c1cccc2c(CCCOc3cccc4ccccc34)c(C(=O)O)n(CCN3CCOCC3)c12`, the “relative IC50” value with HS-PSS [1] worked out at 14900 nM; with HS-PSS [2] it was 17800 nM; in the experiment on HS-Sch-2, 15400 nM; in the experiment on YST-1, 12700 nM.

In the case of `NCC(=O)Nc1ccc(-n2nc(C(F)(F)F)cc2-c2ccc3c(ccc4ccccc43)c2)cc1`, the “relative IC50” value stood at 5040 nM in the experiment on HS-PSS [1], 9140 nM with HS-PSS [2], 6000 nM in the experiment with HS-Sch-2 and 7970 nM with YST-1.

For the compound `NC[C@@](O)(c1ccc(Cl)cc1)c1ccc(-c2cn[nH]c2)cc1`, the “relative IC50” value in the experiment on HS-PSS [1] amounted to 2780 nM; in the experiment with HS-PSS [2], 2030 nM; with HS-Sch-2 it was 1510 nM; in the experiment with YST-1, 2970 nM.

Turning to `O=C(O)c1ccc(CN2CCC(CN[C@@H]3C[C@H]3c3ccccc3)CC2)cc1`, the “relative IC50” value with HS-PSS [1], in the experiment with HS-PSS [2], with HS-Sch-2 and in the experiment on YST-1 was above 10000 nM in each case.

On to `O=C1NC(=O)/C(=C/c2ccc3nccc(-c4ccncc4)c3c2)S1`, for which the “relative IC50” value in the experiment with HS-PSS [1] was above 10000 nM; in the experiment on HS-PSS [2] it was 3060 nM; with HS-Sch-2, 3380 nM; in the experiment on YST-1, 1170 nM.

In the case of `O=C(NC1CCNCC1)c1n[nH]cc1NC(=O)c1c(Cl)cccc1Cl` [AT7519], the entries for the “relative IC50” value in the experiment on HS-PSS [2], with HS-Sch-2 and with YST-1 were 277 nM, 337 nM and 69.3 nM, respectively.

Turning to `Cc1ncc(-c2ccnc(Nc3ccc(S(C)(=O)=O)cc3)n2)n1C(C)C` [AZD-5438], the “relative IC50” value with HS-PSS [2] stood at 367 nM; in the experiment with HS-Sch-2 it was 1900 nM; in the experiment with YST-1, 1450 nM.

Consider `COc1cc(NS(C)(=O)=O)ccc1Nc1c2ccccc2nc2ccccc12` [Amsacrine], for which the “relative IC50” value is 1250 nM in the experiment on HS-PSS [2], 634 nM in the experiment on HS-Sch-2 and 252 nM in the experiment with YST-1.

For the compound `N#CC(c1ccnc(OCc2ccc(CN3CCOCC3)cc2)n1)c1nc2ccccc2s1` (stereo not given) [Bentamapimod], the “relative IC50” value in the experiment on HS-PSS [2] amounted to 1690 nM; in the experiment with HS-Sch-2 it was 2690 nM; in the experiment with YST-1, 1500 nM.

Regarding `CO[C@H]1C(=O)[C@]2(C)[C@@H](OC)C[C@H]3OC[C@@]3(OC(C)=O)[C@H]2[C@H](OC(=O)c2ccccc2)[C@]2(O)C[C@H](OC(=O)[C@H](O)[C@@H](NC(=O)OC(C)(C)C)c3ccccc3)C(C)=C1C2(C)C` [Cabazitaxel], the figures for the “relative IC50” value in the experiment on HS-PSS [2], with HS-Sch-2 and in the experiment on YST-1 were 418 nM, 0.94 nM and 0.74 nM, respectively.

On to `Cc1cc(Nc2ncc(Cl)c(Nc3ccccc3S(=O)(=O)C(C)C)n2)c(OC(C)C)cc1C1CCNCC1` [Ceritinib], for which the results for the “relative IC50” value with HS-PSS [2], in the experiment on HS-Sch-2 and in the experiment on YST-1 were 91.3 nM, 926 nM and 359 nM, respectively.

Take `O=C(c1ccc(F)c(F)c1Nc1ccc(I)cc1F)N1CC(O)([C@@H]2CCCCN2)C1` [Cobimetinib]: the “relative IC50” value with HS-PSS [2] was 159 nM; in the experiment with HS-Sch-2, 300 nM; in the experiment with YST-1, above 1000 nM.

As to `CON(C)C(=O)N1N=C(c2cc(F)ccc2F)S[C@@]1(CCCN)c1ccccc1` [Filanesib], the results for the “relative IC50” value in the experiment with HS-PSS [2], in the experiment on HS-Sch-2 and with YST-1 were 4.62 nM, 2.19 nM and 2.28 nM, respectively.

As to `CC(C)NC[C@@H](C(=O)N1CCN(c2ncnc3c2[C@H](C)C[C@H]3O)CC1)c1ccc(Cl)cc1` [Ipatasertib], the “relative IC50” value was found to be 1160 nM in the experiment with HS-PSS [2], 1080 nM in the experiment on HS-Sch-2 and 879 nM in the experiment with YST-1.

With `CN[C@@H](C)C(=O)N[C@H](C(=O)N1CCC[C@H]1c1nc(C(=O)c2ccc(F)cc2)cs1)C1CCCCC1` [LCL161], the “relative IC50” value in the experiment on HS-PSS [2] was determined as 3860 nM; in the experiment on HS-Sch-2 it was 7520 nM; in the experiment with YST-1 it was 4260 nM.

Consider `O=C(O)c1ccc(Nc2ncc3c(n2)-c2ccc(Cl)cc2C(c2c(F)cccc2F)=NC3)cc1` [MLN-8054], for which the figures for the “relative IC50” value in the experiment with HS-PSS [2], in the experiment with HS-Sch-2 and with YST-1 were 1260 nM, 1110 nM and 625 nM, respectively.

On to `O=C(Nc1cccc(NC(=O)c2cccc(O)c2O)c1)c1cccc(O)c1O` [MST-312], for which the “relative IC50” value in the experiment with HS-PSS [2] turned out to be 3370 nM; in the experiment on HS-Sch-2, 984 nM; in the experiment with YST-1, 3120 nM.

For the compound `CNC(=O)c1nn(C)c2c1C(C)(C)Cc1cnc(Nc3ccc(N4CCN(C)CC4)cc3)nc1-2` [Milciclib], the “relative IC50” value in the experiment with HS-PSS [2] turned out to be 779 nM; in the experiment with HS-Sch-2, 1240 nM; with YST-1 it was 351 nM.

With `NC(=O)c1cccc2cn(-c3ccc(C4CCCNC4)cc3)nc12` (stereo not given) [Niraparib], the entries for the “relative IC50” value in the experiment on HS-PSS [2], with HS-Sch-2 and with YST-1 were 1760 nM, 661 nM and 461 nM, respectively.

In the case of `CC(=O)c1cnc2ccc(-c3cc(Cl)c(O)c(Cl)c3)nc2c1N[C@H]1CC[C@H](CN(C)C)CC1` [OTSSP167], the figures for the “relative IC50” value with HS-PSS [2], in the experiment with HS-Sch-2 and with YST-1 were 339 nM, 26.1 nM and 10.8 nM, respectively.

For `C=CC(=O)Nc1cc(Nc2nccc(-c3cn(C)c4ccccc34)n2)c(OC)cc1N(C)CCN(C)C` [Osimertinib], the “relative IC50” value in the experiment with HS-PSS [2] worked out at 472 nM; in the experiment on HS-Sch-2, 759 nM; in the experiment on YST-1, 299 nM.

In the case of `CCn1nnc2c(N3CCOCC3)nc(-c3ccc(NC(=O)Nc4ccc(C(=O)N5CCN(C)CC5)cc4)cc3)nc21` [PKI-402], the “relative IC50” value in the experiment with HS-PSS [2] is 46.7 nM; in the experiment with HS-Sch-2, 95.8 nM; with YST-1, 61.1 nM.

`CCOc1cc2ncc(C#N)c(Nc3ccc(F)c(Cl)c3)c2cc1NC(=O)/C=C/CN(C)C` [Pelitinib]: the “relative IC50” value in the experiment on HS-PSS [2] turned out to be 79.5 nM; with HS-Sch-2, 195 nM; in the experiment with YST-1, 323 nM.

With `COc1cccc(OCCCN)c1-c1cc(Nc2cnc(C#N)cn2)n[nH]1` [Prexasertib], the figures for the “relative IC50” value in the experiment on HS-PSS [2], in the experiment with HS-Sch-2 and with YST-1 were 1770 nM, 26 nM and 54.7 nM, respectively.

For `O=C(CCCCCCNC(=O)c1cnc(N(c2ccccc2)c2ccccc2)nc1)NO` [Rocilinostat], the figures for the “relative IC50” value in the experiment on HS-PSS [2], in the experiment on HS-Sch-2 and with YST-1 were 2760 nM, 1930 nM and 1240 nM, respectively.

On to `Cc1cc2c(C(=O)NC[C@H](C)c3ccccc3)c(O)c(O)cc2c(O)c1-c1c(C)cc2c(C(=O)NC[C@H](C)c3ccccc3)c(O)c(O)cc2c1O` [Sabutoclax], for which the “relative IC50” value amounted to 8740 nM in the experiment with HS-PSS [2], 523 nM with HS-Sch-2 and 618 nM in the experiment with YST-1.

Turning to `CNC(=O)c1ccccc1Nc1cc(Nc2ccc(N3CCOCC3)cc2OC)ncc1C(F)(F)F` [VS-4718], the “relative IC50” value in the experiment with HS-PSS [2] is 3690 nM; in the experiment with HS-Sch-2, 2610 nM; in the experiment on YST-1 it was 724 nM.

Regarding `O=C(/C=C\n1cnc(-c2cc(C(F)(F)F)cc(C(F)(F)F)c2)n1)NNc1ccccn1` [Verdinexor], the “relative IC50” value in the experiment with HS-PSS [2] is 137 nM; in the experiment with HS-Sch-2, 137 nM; with YST-1, 144 nM.
